Literature values in patent US9861098B2, “Method for producing agrichemical-containing resin composition” (Nippon Soda Co., Ltd., priority 2008, dated 2018).

Details: 20° C.

| SMILES | water solubility |
| --- | --- |
| COP(=O)(NC(C)=O)SC (stereo not drawn) [acephate] | 790000 ppm |
| CNC(=O)Oc1cccc2c1OC(C)(C)O2 [bendiocarb] | 280 ppm |
| CN/C(=N\[N+](=O)[O-])NCc1cnc(Cl)s1 [clothianidin] | 327 ppm |
| CCSCc1ccccc1OC(=O)NC [ethiofencarb] | 1800 ppm |
| CNC(=O)ON=C(C)SC [methomyl] | 58000 ppm |
| CCN(Cc1ccc(Cl)nc1)/C(=C/[N+](=O)[O-])NC [nitenpyram] | 590000 ppm |
| N#C/N=C1\SCCN1Cc1ccc(Cl)nc1 [thiacloprid] | 185 ppm |
| CN1COCN(Cc2cnc(Cl)s2)/C1=N\[N+](=O)[O-] [thiamethoxam] | 4100 ppm |

Same assay, conditions: 25° C.

| SMILES | water solubility |
| --- | --- |
| C/C(=N\C#N)N(C)Cc1ccc(Cl)nc1 [acetamiprid] | 4250 ppm |
